Here are results for two molecules from EP2475361B1, “N-SUBSTITUTED BENZENEPROPANAMIDES FOR USE IN THE TREATMENT OF PAIN AND INFLAMMATION” (Novaremed Ltd., priority 2009, dated 2011).

Assay [1] has as its system Balb/c mice. Briefly: Formalin test. It counts as in vivo. Conditions: formalin 1% intraplantar 3 h or 4 h after treatment; 0.2, 1, 2.5 mg/kg i.p.; paw licking 0-5 min and 20-30 min; Figures 12a-12e. The protocol: Formalin test. The method used was similar to that described by Hunscaar and Hole (1987) "The formalin test in mice: dissociation between inflammatory and non-inflammatory pain," Pain 30, pp.[…].
Five animals are used in each group and two to three hours after oral administration of the conjugates, 40 µl or 20 µl (rats or mice, respectively) of a 1% formalin (in 0.9% saline) solution is injected subcutaneously into the dorsal surface hind paw. The formalin induced typical flinching behaviour of the injected paw was counted. The animals were returned to a glass chamber and the total time spent by the animal licking or biting the injected paw was measured. Formalin induced pain behaviour is biphasic. The duration of paw licking was determined during the following two time periods: 0-5 min (first-neurogenic phase) and 20-30 min (second-inflammatory phase) after formalin injection. Part a. Male mice (Balb/c mice, 27 weeks old, not naïve), were divided in 4 groups (5 mice per group) and treated (0 min, i.p.) with the following formulations, respectively: […]
Part b. Male mice (Balb/c mice, 27 weeks old, not naive), were divided in 4 groups (5 mice in groups) and treated (0 min, i.p.) with the following formulations, respectively: […]

Assay [2] has as its system Balb/c mice. Briefly: Hot-Plate Test (antinociceptive effect, sub-chronic administration). It counts as in vivo. Conditions: hot plate 52°C; 0.1 or 5 mg/Kg po daily for 16 days; tested on days 1, 8 and 15; compared with Diclofenac 10 mg/kg. An excerpt:
The objective of the study was to assess antinociceptive activity of tested items in the hot plate tests in mice, when administered sub-chronically. Measuring paw licking or jumping response time elapses following placement on heated surface (hot plate) was used to determine potential antinociceptive effect in mice.
A total of 42 Balb/c mice (12weeks old) were utilized. The mice were approximately 25g males at study initiation. The minimum and maximum weights of the group were within a range of ±10 % of group mean weight.
Compounds 2 and 3 were tested and compared with Diclofenac® (Perigo). DMSO solutions were used. Six groups of mice (each having n=7 or n=8 mice) were tested, the last group receiving Diclofenac®.
All groups received the drugs daily po for 16 days. Hot plate experiments were performed on days; 1, 8 and 15.
The hot plate is maintained thermostatically at a temperature of 52°C. One hour before the administration of the drugs, mice are tested in the hot plate. At time 0 the mice are administered with the test compound and the response to the hot plate is measured again at different times: 60,120,180, 240, 300 and 360 min.
Results are expressed as: Delta from maximum response [baseline vs. maximum response]; Absolute measures over time; and Accumulated time.

As for `CC(O)COCC(Cc1ccc(O)cc1)NC(=O)CCc1ccccc1` (stereo not drawn) [Compound 2], the anti-inflammatory properties result in assay [1] is on record as “anti-inflammatory properties”. Further, the “pain relief (antinociceptive effect)” value in assay [2] was “effective as pain relievers”.

`O=C(CCc1ccccc1)NC(COCCO)Cc1ccc(O)cc1` (stereo not drawn) [Compound 3]: the “pain relief (antinociceptive effect)” value in assay [2] is reported as “effective as pain relievers”.
